Measurements taken from PubChem BioAssay (NCI).
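Compound exposure: 48 hours, 5 concentrations, 96-well plates. Abbreviation: GI50, concentration required for 50% inhibition of growth. TGI is the concentration that stops growth completely.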

What was measured:
Experiment in all cases: NCI-60 cell line screen, 48 h
K-562 leukemia = tested on: K-562 leukemia
HS 578T breast = tested on: HS 578T breast
UO-31 renal = tested on: UO-31 renal
TK-10 renal = tested on: TK-10 renal
UACC-257 melanoma = tested on: UACC-257 melanoma
SK-OV-3 ovarian = tested on: SK-OV-3 ovarian
A498 renal = tested on: A498 renal
T-47D breast = tested on: T-47D breast
NCI/ADR-RES ovarian = tested on: NCI/ADR-RES ovarian
MALME-3M melanoma = tested on: MALME-3M melanoma
ACHN renal = tested on: ACHN renal
HL-60(TB) leukemia = tested on: HL-60(TB) leukemia

NC(N)=Nc1ccc(Nc2cccc(Nc3ccc(Cl)c(C(F)(F)F)c3)c2)cn1
GI50 (K-562 leukemia): 2.54 µM
TGI (K-562 leukemia): > 100 µM
GI50 (HS 578T breast): 2.04 µM
TGI (HS 578T breast): 4.94 µM
GI50 (UO-31 renal): 4.33 µM
TGI (UO-31 renal): 38.3 µM
GI50 (TK-10 renal): 2.77 µM
TGI (TK-10 renal): 7.58 µM
GI50 (UACC-257 melanoma): 2.39 µM
TGI (UACC-257 melanoma): 6.53 µM
GI50 (SK-OV-3 ovarian): 2.81 µM
TGI (SK-OV-3 ovarian): 6.91 µM
GI50 (A498 renal): 1.69 µM
TGI (A498 renal): 4.72 µM
GI50 (T-47D breast): 1.85 µM
TGI (T-47D breast): 4.87 µM
GI50 (NCI/ADR-RES ovarian): 21.6 µM
TGI (NCI/ADR-RES ovarian): 93.4 µM
GI50 (MALME-3M melanoma): 2.01 µM
TGI (MALME-3M melanoma): 5.36 µM
GI50 (ACHN renal): 3.58 µM
TGI (ACHN renal): 17.5 µM
GI50 (HL-60(TB) leukemia): 2.31 µM
TGI (HL-60(TB) leukemia): 5.74 µM
